Data published in patent US8557800B2, “Sphingosine kinase inhibitors” (Apogee Biotechnology Corporation, priority 2005, dated 2013).
Like-named read-outs stand apart in the source and are kept apart here.

Columns and labels:
[1] = system: MCF-7 human breast adenocarcinoma cells; assay: Cytotoxicity, SRB binding assay; type: cell-based
Description: (§1) To further assess the biological efficacies of the Compounds in intact cells, each Compound was evaluated for cytotoxicity using human cancer cell lines. These experiments followed methods that have been extensively used. Cell lines tested included MCF-7 human breast adenocarcinoma cells and MCF-10A non-transformed human breast epithelial cells. The indicated cell lines were treated with varying doses of the test Compound for 48 h. Cell survival was then determined using the SRB binding assay (Skehan et al., 1990, J Natl Cancer Inst 82: 1107), and the concentration of compound that inhibited proliferation by 50% (the IC50) was calculated. Values (in μM) represent the mean±sd for replicate trials.

[2] = system: MCF-10A non-transformed human breast epithelial cells; assay: Cytotoxicity, SRB binding assay; type: cell-based; conditions: 48 h
Description: as §1

recombinant human SK = assay: Inhibition of recombinant human SK, LC/MS/MS assay; type: biochemical; conditions: 6 μg/ml compound
Description: SK activity is measured by incubation of the recombinant SK with [^3H]sphingosine and 1 mM ATP under defined conditions, followed by extraction of the assay mixture with chloroform:methanol under basic conditions. […] Radioactivity in aliquots of the aqueous phase is then quantified as a measure of [^3H]S1P formation.
In an alternate assay procedure, the recombinant human SK was incubated with unlabeled sphingosine and ATP as described above. After 30 minutes, the reactions were terminated by the addition of acetonitrile to directly extract the newly synthesized S1P. The amount of S1P in the samples is then quantified as follows. C17 base D-erythro-sphingosine and C17 SIP are used as internal standards for sphingosine and S1P, respectively. […] The lipids are then fractionation by High-Performance Liquid Chromatography using a C8-reverse phase column eluted with 1 mM methanolic ammonium formate/2 mM aqueous ammonium formate. […] Calibration curves are generated by plotting the peak area ratios of the synthetic standards for each sphingolipid, and used to determine the normalized amounts of sphingosine and S1P in the samples.
Each Compound of this invention was tested for its ability to inhibit recombinant SK using the LC/MS/MS assay described above.

[3] = MCF7, inhibition of cell proliferation, 48 h, read-out: MCF-7 IC50
[4] = inhibition of cell proliferation, read-out: MCF-10A IC50

Structure (SMILES) | IC50 [1, 3] [µM] | IC50 [2, 4] [µM] | Recombinant SK (% inhibition) (recombinant human SK) [%] | IC50 ([1]; MCF7, 48 h, read-out: MCF-7 IC50 (μM)) [µM] | IC50 ([2]; read-out: MCF-10A IC50 (μM)) [µM]
CC(C)NC(=O)C12CC3CC(C1)CC(c1ccc(Cl)cc1)(C3)C2 [Compound 1, 3-(4-Chloro-phenyl)-adamantane-1-carboxylic acid isopropylamide] | 23 | 151 | 38 |  | 
O=C(Nc1ccccc1)C12CC3CC(C1)CC(c1ccc(Cl)cc1)(C3)C2 [Compound 4, 3-(4-Chloro-phenyl)-adamantane-1-carboxylic acid phenylamide] | 72 | 137 | 44 |  | 
O=C(Nc1ccc(O)cc1)C12CC3CC(CC(C3)C1)C2 [Compound 5, Adamantane-1-carboxylic acid (4-hydroxy-phenyl)-amide] |  | 30 | 100 |  | 
O=C(Nc1ccc(O)cc1)C12CC3CC(C1)CC(c1ccc(Cl)cc1)(C3)C2 [Compound 6, 3-(4-Chloro-phenyl)-adamantane-1-carboxylic acid (4-hydroxy-phenyl)-amide] | 5 | 15 | 72 |  | 
O=C(Nc1ccc(O)cc1O)C12CC3CC(C1)CC(c1ccc(Cl)cc1)(C3)C2 [Compound 8, 3-(4-Chloro-phenyl)-adamantane-1-carboxylic acid (2,4-dihydroxy-phenyl)-amide] | 47 | 94 | 49 |  | 
O=C(Nc1cccc(CO)c1)C12CC3CC(C1)CC(c1ccc(Cl)cc1)(C3)C2 [Compound 9, 3-(4-Chloro-phenyl)-adamantane-1-carboxylic acid (3-hydroxymethyl-phenyl)-amide] | 9 | 17 | 84 |  | 
N#CCc1ccc(NC(=O)C23CC4CC(CC(C4)C2)C3)cc1 [Compound 10, Adamantane-1-carboxylic acid (4-cyanomethyl-phenyl)-amide] |  | 170 | 3 |  | 
N#CCc1ccc(NC(=O)C23CC4CC(C2)CC(c2ccc(Cl)cc2)(C4)C3)cc1 [Compound 11, 3-(4-Chloro-phenyl)-adamantane-1-carboxylic acid (4-cyanomethyl-phenyl)-amide] | 87 | 87 | 17 |  | 
CN1CCCC1CCNC(=O)C12CC3CC(CC(C3)C1)C2 (stereo not drawn) [Compound 56, Adamantane-1-carboxylic acid [2-(1-methyl-pyrrolidin-2-yl)-ethyl]-amide] | 10 |  | 33 |  | 
O=C(NCc1ccncc1)C12CC3CC(CC(C3)C1)C2 [Compound 60, Adamantane-1-carboxylic acid (pyridin-4-ylmethyl)-amide] | 7 |  | 0 |  | 
O=C(Nc1ncnc2[nH]cnc12)C12CC3CC(C1)CC(c1ccc(Cl)cc1)(C3)C2 [Compound 73, 3-(4-Chloro-phenyl)-adamantane-1-carboxylic acid (9H-purin-6-yl)-amide] | 80 |  | 53 |  | 
Fc1cc(C(F)(F)F)ccc1CNCC12CC3CC(C1)CC(c1ccc(Cl)cc1)(C3)C2 [Compound 78, [3-(4-Chloro-phenyl)-adamantan-1-ylmethyl]-(2-fluoro-4-trifluoromethyl-benzyl)-amine] | 30 |  | 43 |  | 
CN1CCN(NCC23CC4CC(C2)CC(c2ccc(Cl)cc2)(C4)C3)CC1 [Compound 83, [3-(4-Chloro-phenyl)-adamantan-1-ylmethyl]-(4-methyl-piperazin-1-yl)-amine] | 5 |  | 60 |  | 
CN1CCCC1CCNCC12CC3CC(C1)CC(c1ccc(Cl)cc1)(C3)C2 (stereo not drawn) [Compound 86, [3-(4-Chloro-phenyl)-adamantan-1-ylmethyl]-[2-(1-methyl-pyrrolidin-2-yl)-ethyl]-amine] | 5 |  | 6 |  | 
Clc1ccc(C23CC4CC(CC(CNCc5ccncc5)(C4)C2)C3)cc1 [Compound 88, [3-(4-Chloro-phenyl)-adamantan-1-ylmethyl]-pyridin-4-ylmethyl-amine] | 11 |  | 1 |  | 
CC(N)C12CC3CC(CC(c4ccc(Cl)cc4)(C3)C1)C2 (stereo not drawn) [Compound 91, 1-[3-(4-Chloro-phenyl)-adamantan-1-yl]-ethylamine] | 5 | 4 |  |  | 
CC(C)NC(C)C12CC3CC(CC(c4ccc(Cl)cc4)(C3)C1)C2 (stereo not drawn) [Compound 92, {1-[3-(4-Chloro-phenyl)-adamantan-1-yl]-ethyl}-isopropyl-amine] | 2 | 6 |  |  | 
CC(Nc1ccccc1)C12CC3CC(CC(c4ccccc4)(C3)C1)C2 (stereo not drawn) [Compound 93, Phenyl-[1-(3-phenyl-adamantan-1-yl)-ethyl]-amine] | 15 |  | 70 |  | 

Structure (SMILES) | IC50 [1, 3] [µM] | IC50 [2, 4] [µM] | Recombinant SK (% inhibition) (recombinant human SK) [%] | IC50 ([1]; MCF7, 48 h, read-out: MCF-7 IC50 (μM)) [µM] | IC50 ([2]; read-out: MCF-10A IC50 (μM)) [µM]
CC(Nc1ccccc1)C12CC3CC(CC(c4ccc(Cl)cc4)(C3)C1)C2 (stereo not drawn) [Compound 95, {1-[3-(4-Chloro-phenyl)-adamantan-1-yl]-ethyl}-phenyl-amine] | 22 | 68 |  |  | 
CC(NCc1ccccc1)C12CC3CC(CC(C3)C1)C2 (stereo not drawn) [Compound 96, (1-Adamantan-1-yl-ethyl)-benzyl-amine] | 9 | 9 |  |  | 
CC(NC1CCN(C)CC1)C12CC3CC(CC(C3)C1)C2 (stereo not drawn) [Compound 104, (1-Adamantan-1-yl-ethyl)-(1-methyl-piperidin-4-yl)-amine] | 34 |  | 0 |  | 
CC(NC1CCN(C)CC1)C12CC3CC(CC(c4ccccc4)(C3)C1)C2 (stereo not drawn) [Compound 105, (1-Methyl-piperidin-4-yl)-[1-(3-phenyl-adamantan-1-yl)-ethyl]-amine] | 5 | 14 |  |  | 
CC(NC1CCN(C)CC1)C12CC3CC(CC(c4ccc(F)cc4)(C3)C1)C2 (stereo not drawn) [Compound 106, {1-[3-(4-Fluoro-phenyl)-adamantan-1-yl]-ethyl}-(1-methyl-piperidin-4-yl)-amine] | 2 | 6 |  |  | 
O=C(O)C12CC3CC(C1)CC(c1ccccc1)(C3)C2 [Compound 121, 3-Phenyl-adamantane-1-carboxylic acid] | 13 | 176 |  |  | 
O=C(O)C12CC3CC(C1)CC(c1ccc(F)cc1)(C3)C2 [Compound 122, 3-(4-Fluoro-phenyl)-adamantane-1-carboxylic acid] | 155 | 182 |  |  | 
O=C(O)C12CC3CC(C1)CC(c1ccc(Cl)cc1)(C3)C2 [Compound 123, 3-(4-Chloro-phenyl)-adamantane-1-carboxylic acid] | 48 | 95 |  |  | 
CC(=O)C12CC3CC(CC(C3)C1)C2 [Compound 124, 1-Adamantan-1-yl-ethanone] |  |  |  | 11 | 105
CC(=O)C12CC3CC(C1)CC(c1ccccc1)(C3)C2 [Compound 125, 1-(3-Phenyl-adamantan-1-yl)-ethanone] | 8 | 59 |  |  | 
CC(=O)C12CC3CC(C1)CC(c1ccc(F)cc1)(C3)C2 [Compound 126, 1-[3-(4-Fluoro-phenyl)-adamantan-1-yl]-ethanone] | 2 | 6 |  |  | 
CC(=O)C12CC3CC(C1)CC(c1ccc(Cl)cc1)(C3)C2 [Compound 127, 1-[3-(4-Chloro-phenyl)-adamantan-1-yl]-ethanone] | 6 | 16 |  |  | 
COC(=O)C(C(=O)OC)C(=O)C12CC3CC(CC(C3)C1)C2 [Compound 128, 2-(Adamantane-1-carbonyl)-malonic acid dimethyl ester] | 34 | 63 |  |  | 
COC(=O)C(C(=O)OC)C(=O)C12CC3CC(C1)CC(c1ccc(Cl)cc1)(C3)C2 [Compound 129, 2-[3-(4-Chloro-phenyl)-adamantane-1-carbonyl]-malonic acid dimethyl ester] | 16 | 105 |  |  | 
O=C(/C=C/c1ccc(Cl)cc1)C12CC3CC(C1)CC(c1ccc(Cl)cc1)(C3)C2 [Compound 130, 3-(4-Chloro-phenyl)-1-[3-(4-chloro-phenyl)-adamantan-1-yl]-propenone] | 7 |  | 38 |  | 
N#Cc1ccc(/C=C/C(=O)C23CC4CC(C2)CC(c2ccc(Cl)cc2)(C4)C3)cc1 [Compound 131, 4-{3-[3-(4-Chloro-phenyl)-adamantan-1-yl]-3-oxo-propenyl}-benzonitrile] | 27 |  | 41 |  | 
O=C(/C=C/c1ccc(Cl)nc1)C12CC3CC(C1)CC(c1ccc(Cl)cc1)(C3)C2 [Compound 134, 1-[3-(4-Chloro-phenyl)-adamantan-1-yl]-3-(6-chloro-pyridin-3-yl)-propenone] | 16 |  | 52 |  | 
O=C(/C=C/c1cnc[nH]1)C12CC3CC(C1)CC(c1ccc(Cl)cc1)(C3)C2 [Compound 135, 1-[3-(4-Chloro-phenyl)-adamantan-1-yl]-3-(1H-imidazol-4-yl)-propenone] | 3 |  | 64 |  | 
